# Experimental data from US12098416B2, “Assessment of biological contamination and biological contamination treatment” (Halliburton Energy Services, Inc., priority 2019, dated 2024).
# Key:
# [1] = tested on: SRB (sulfate reducing bacteria); experiment: Biocide efficacy study on low TDS (1%) fluid sample, Rapid SRB Detection Pouches (thin-film culture device); type: cell-based; conditions: for reduction in SRB count: 24-hour biocide contact
# Experimental: In this example, an assessment of biological contamination was performed using culture devices including indicator reagents. More specifically, SRB enumeration in various water samples including SRB was performed using thin-film culture devices (“pouches”). Three milliliters of two samples, Sample A and Sample B, were introduced into separate Rapid SRB Detection Pouches (manufactured by 3M™). The pouches were sealed and incubated at 32° C. The pouches were incubated upright to allow the precipitate to settle toward the bottom of pouch. The SRB count of each sample was measured at multiple time intervals using a visual technique where the color of the samples was compared to reference colors as shown in FIGS. 2A and 2B. The degree of blackening of the sample at certain time points compared to the reference is indicative of SRB count.
# A biocide efficacy study on a low TDS (1%) fluid sample using a thin-film culture device was evaluated and compared to the traditional bug-bottle approach. The low TDS fluid sample was inoculated with mature SRB. Seventy-two 3 mL doses of the fluid sample were then introduced into 72 Rapid SRB Detection Pouches. […] The dosages were based on the standard US Environmental Protection Agency (EPA) recommendations for each respective biocide:
# (§1) The fluid samples were then incubated at a temperature of 32° C. After approximately 24 hours of inoculation, the SRB count was measured using the incubation and referencing procedure of Example 1. The bug bottle numbers were determined by counting the number of bottles in a serial dilution which had formed a visible black precipitate.
# [2] = tested on: SRB (sulfate reducing bacteria); experiment: Biocide efficacy study on high TDS (10%) fluid sample, Rapid SRB Detection Pouches (thin-film culture device); type: cell-based; conditions: 4-hour biocide contact
# Experimental: A biocide efficacy study on a high TDS (10%) fluid sample using a thin-film culture device was evaluated and compared to the traditional bug-bottle approach. The high TDS fluid sample was inoculated with mature SRB. Seventy-two 3 mL doses of the fluid sample were then introduced into 72 respective Rapid SRB Detection Pouches.
# as §1
# [3] = dose level not clearly singled out
Compound,"reduction in SRB count [1, 3]","reduction in SRB count in comparison to the control [2, 3]","reduction in SRB count in comparison to the control ([1]; 4-hour biocide contact, low dose (THPS Low 25 ppm))",reduction in SRB count ([1]; low dose (THPS Low 25 ppm)),reduction in SRB count in comparison to the control ([2]; low dose (THPS Low 25 ppm))
"CCCCCCCCCC[N+](C)(C)CCCCCCCCCC.[Cl-] [Quat, didecyldimethyl ammonium chloride]",all but the didecyldimethyl ammonium chloride and THPS low dose biocide groups demonstrated a reduction in SRB count,all but the Quat and THPS low dose biocide groups demonstrated a reduction in SRB count,,,
tetrakis(hydroxymethyl)phosphonium sulfate [THPS],,,all but the THPS Low biocide group demonstrated a reduction in SRB count,all but the didecyldimethyl ammonium chloride and THPS low dose biocide groups demonstrated a reduction in SRB count,all but the Quat and THPS low dose biocide groups demonstrated a reduction in SRB count
